# “Also recorded” adds a separate entry of the source.
# Legend:
# Oprm1−/− mice [1] = assay: Direct social interaction test; details: Oprm1−/− mice, bumetanide 0.5 mg/kg i.p. daily vs saline
# Oprm1−/− mice [2] = assay: Motor stereotypies scoring; details: bumetanide 0.5 mg/kg i.p. daily
# Oprm1−/− mice [3] = assay: Novelty-suppressed feeding test
# [4] = literature statement (Romermann et al, 2017); cited from earlier work
# Oprm1−/− mice [5] = assay: Marble burying test; details: bumetanide 0.5 mg/kg i.p. daily
# Oprm1−/− mice [6] = assay: Three-chamber social novelty preference test; details: bumetanide 0.5 mg/kg i.p. daily vs saline
# Oprm1−/− mice [7] = assay: Y-maze exploration; details: bumetanide 0.5 mg/kg i.p. daily; for rate of same arm returns (cognitive stereotypies): Oprm1−/− mice
smiles,measurement,setting,value
"CCCCNc1cc(C(=O)O)cc(S(N)(=O)=O)c1Oc1ccccc1 [bumetanide, Bumetanide]",number of and time spent in grooming episodes,Oprm1−/− mice [1],only effective in reducing the number of grooming episodes
same,number of grooming episodes following a social contact,Oprm1−/− mice [1],only effective in reducing the number of grooming episodes
same,number of nose contacts,Oprm1−/− mice [1],no significant effect
same,"number of, time spent in and duration of paw contacts",Oprm1−/− mice [1],no significant effect
same,social interaction (overall),Oprm1−/− mice [1],only partially restored social interaction
same,time spent in and duration of nose contacts,Oprm1−/− mice [1],"increased, but failed to completely rescue"
same,time spent in social contact,Oprm1−/− mice [1],"increased, but failed to completely rescue"
same,number of and time spent in grooming episodes,Oprm1−/− mice [1]; listed as Bumetanide,normalized
same,number of grooming episodes following a social contact,Oprm1−/− mice [1]; listed as Bumetanide,normalized
same,circling episodes,Oprm1−/− mice [2]; Oprm1−/− mice,efficiently suppressed
same,stereotypic behaviour / motor stereotypies (overall),Oprm1−/− mice [2]; Oprm1−/− mice,efficiently relieved stereotypic behaviour
same,stereotypic shakes,Oprm1−/− mice [2]; Oprm1−/− mice,efficiently suppressed
same,stereotypic behaviour / motor stereotypies (overall),"Oprm1−/− mice [2]; Oprm1−/− mice, listed as Bumetanide",suppressed motor stereotypies
same,duration of burying episodes,Oprm1−/− mice [2]; all mice,no significant effect
same,number of and time spent in burying episodes,Oprm1−/− mice [2]; all mice,increased
same,number of rearing and grooming episodes,Oprm1−/− mice [2]; mutant or wild-type,did not change
same,food intake back in the home cage,"Oprm1−/− mice [3]; Oprm1 line, bumetanide 0.5 mg/kg i.p. daily",did not modify significantly
same,feeding latency,"Oprm1−/− mice [3]; Oprm1−/− mice, bumetanide 0.5 mg/kg i.p. daily",did not modify significantly
same,behavioural signs of anxiety (overall),"Oprm1−/− mice [3]; Oprm1−/− mice, marble burying and novelty-suppressed feeding, bumetanide 0.5 mg/kg",did not show effects
same,ability to cross the blood brain barrier,[4],inability; also recorded: low ability to cross the blood brain barrier
same,number of marbles buried,Oprm1−/− mice [5],did not significantly modify
same,difference (mouse over toy) in number of nose contacts,Oprm1−/− mice [6],restored the difference; also recorded: increased
same,difference (preference for the mouse over the toy) in time spent in compartments,Oprm1−/− mice [6],restored the difference; also recorded: successfully restored
same,duration of close contacts with the living mouse,Oprm1−/− mice [6],unable to reverse the deficit; also recorded: failed to restore
same,time spent in close contacts with the living mouse,Oprm1−/− mice [6],unable to reverse the deficit; also recorded: absence of effect
same,rate of same arm returns (cognitive stereotypies),Oprm1−/− mice [7],reduced
same,rate of same arm returns (cognitive stereotypies),Oprm1−/− mice [7]; listed as Bumetanide,reduced cognitive stereotypies; also recorded: similarly reduced
same,rates of spontaneous alternation and alternate arm returns,Oprm1−/− mice [7]; all animals,did not modify

# Source: patent US12036237B2, “Bromide source for use in treating autism spectral disorder” (INSERM (INSTITUT NATIONAL DE LA SANTE ET DE LA RECHERCHE …, priority 2016, dated 2024)
